Measurements from patent publication US20210069213A1, “COMPOSITION AND METHOD OF TREATMENT FOR DRY A.M.D. (AGE RELATED MACULAR DEGENERATION)” (EYE CO PTY LTD, priority 2018, published 2021).
Where two headings read alike, the source gives them in different places.

Assays:
[1] = test system: New Zealand albino rabbits; test: Intravitreal toxicology of fludrocortisone acetate in rabbit eyes; format: in vivo; settings: based on vitreous volume, man 4 mL vs rabbit 1.5 mL
Excerpt: The eyes were enucleated and examined with light microscopy.
Investigative Ophthalmology & Visual Science, 2006. 47(13): p. 4281-4281 ]. […] Their eyes were enucleated and examined with light microscopy.

[2] = test system: subject with bi-lateral GA; test: Phase Ib study of intravitreal FA in patients with geographic atrophy; format: in vivo, human; settings: single subject, 1 mg intravitreal
Procedure: A. Phase Ib, Study of Safety and Tolerability of Intravitreal Fludrocortisone Acetate (FA) and Triamcinolone (TA) in Patients with Geographic Atrophy (GA)
The identical protocol will be followed with TA.
Part 1 involves a single participant to assess safety and tolerability of 1 mg/0.1 mL FA. This participant will be followed for up to 28 days and reviewed by a safety review committee prior to the recruitment of a further 2 participants treated with 1 mg/0.1 mL FA totalling in 3 participants in the first cohort.
Visit 2 (Baseline)—All subjects: Unless specified, all ophthalmic procedures (including imaging) are to be performed on the Study eye only. 1. Verify that all inclusion/exclusion criteria are met, including the determination of eligibility by the PI. 2. Obtain information on any changes in medical health and/or the use of concomitant medications. 3. Collect vital signs pre- and post-dose. Vital signs will be measured within 1 hour prior to dosing for the pre-dose time point. Post-dose vital signs readings will be performed within 30 minutes after dosing. 4. Perform BCVA. 5. Perform LL-BCVA. 6. Perform a complete ophthalmic exam including slit-lamp exam of the cornea, iris, anterior chamber, lens (LOCS III if any opacity on the lens noted) and aqueous reaction (cells and flare), dilated fundus exam of the vitreous and retina and IOP measurement. 7. Perform the IVT injection of fludrocortisone acetate. 8. Monitor the study eye within 15 minutes' post injection. 9. Monitor for adverse events.
FIGS. 2 to 6 show the results of injection of fludrocortisone into one subject according to the Phase lb study.

[3] = test system: New Zealand albino rabbits; settings: cited from earlier work; for ERG change in the other groups: intravitreal 2 mg, 1 mg, 400 μg/0.1 ml; for ERG change in the other groups / ERG change: two weeks after injection; for intravitreal (vitreous) haemorrhage: intravitreal 4 mg/0.1 mL; for ERG change: intravitreal 4 mg/0.1 ml
[4] = test system: light-damage model of dry AMD; test: Light-damage model of dry AMD in mice; format: in vivo
[5] = biological target: T1, mineralocorticoid receptor (Homo sapiens, UniProt P08235); settings: Table 1; hydrocortisone (cortisol) = 1; cited from earlier work
T1 sequence (P08235 1-984): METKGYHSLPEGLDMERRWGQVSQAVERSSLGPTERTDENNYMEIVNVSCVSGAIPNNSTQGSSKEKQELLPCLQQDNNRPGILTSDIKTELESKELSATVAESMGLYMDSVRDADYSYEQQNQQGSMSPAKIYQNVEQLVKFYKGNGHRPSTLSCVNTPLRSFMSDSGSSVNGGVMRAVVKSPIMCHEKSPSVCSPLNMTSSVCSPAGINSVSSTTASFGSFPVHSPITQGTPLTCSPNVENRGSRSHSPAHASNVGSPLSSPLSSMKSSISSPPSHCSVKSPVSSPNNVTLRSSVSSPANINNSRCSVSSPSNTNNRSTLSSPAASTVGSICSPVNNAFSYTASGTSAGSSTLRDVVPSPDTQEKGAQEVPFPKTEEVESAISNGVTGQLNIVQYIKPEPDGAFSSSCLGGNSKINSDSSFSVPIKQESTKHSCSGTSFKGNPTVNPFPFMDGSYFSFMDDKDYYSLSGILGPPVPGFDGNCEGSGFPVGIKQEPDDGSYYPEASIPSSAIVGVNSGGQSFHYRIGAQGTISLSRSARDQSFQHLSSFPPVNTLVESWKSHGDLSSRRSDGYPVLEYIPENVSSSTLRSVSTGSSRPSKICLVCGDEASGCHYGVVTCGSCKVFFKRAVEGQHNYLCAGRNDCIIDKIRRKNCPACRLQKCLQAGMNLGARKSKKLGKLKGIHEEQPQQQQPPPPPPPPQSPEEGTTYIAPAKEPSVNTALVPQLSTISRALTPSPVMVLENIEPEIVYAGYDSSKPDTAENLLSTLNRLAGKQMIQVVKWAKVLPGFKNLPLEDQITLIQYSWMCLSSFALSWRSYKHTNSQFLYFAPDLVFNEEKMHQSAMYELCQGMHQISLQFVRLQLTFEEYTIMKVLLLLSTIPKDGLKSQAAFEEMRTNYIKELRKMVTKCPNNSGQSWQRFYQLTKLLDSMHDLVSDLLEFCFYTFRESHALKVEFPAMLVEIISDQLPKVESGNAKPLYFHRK

[6] = test system: monkey choroidal endothelial cells (CECs); settings: PMA-stimulated CECs; FA compared with TA; cited from earlier work
[7] = FA delivered in Kenalog vehicle, 7 days later

## CC(=O)OCC(=O)[C@@]1(O)CC[C@H]2[C@@H]3CCC4=CC(=O)CC[C@]4(C)[C@@]3(F)[C@@H](O)C[C@@]21C [Fludrocortisone acetate, 9-α-Fiuoro-11 β. 17 α, 21-trihydroxy-4-pregnene-3, 20 dione acetate]
[1]
  human equivalent dose: 67 mg/eye every 4 weeks
[2]
  external eye exam: all normal
  slit lamp biomicroscopy: all normal, apart from a previous scar on the anterior chamber
  vitreous haze grading: absent
[2]; left eye, day 28
  toxicity: no evidence of toxicity
  visual acuity (VA): improved visual acuity
[3]; 400 μg to 4 mg per eye
  histological examination of retinal sections (light microscopy): no evidence of toxicity or vacuolization except for one eye in the 4mg group
[3]; 2-mg group
  time by which all aggregates disappeared from the vitreous: 22 ± 8 days
[3]; 4-mg group
  time by which all aggregates disappeared from the vitreous: 33 ± 7 days
[3]; all groups
  IOP: normal
[3]
  ERG change in the other groups: normal ERG
  intravitreal (vitreous) haemorrhage: 1
  ERG change: one eye injected with 4 mg/0.1 ml exhibited decreases in ERG output
[3]; listed as FA
  ERG change in the other groups: no other problems of reductions in ERG
  intravitreal (vitreous) haemorrhage: Two eyes at 4 mg/0.1 ml experienced intravitreal haemorrhage
  ERG change: reduced ERG
[3]; rabbit, in vivo
  signs of retinal toxicity on slit-lamp examination, indirect ophthalmoscopy, or light microscopy: no signs of retinal toxicity
  tolerability in animal toxicology studies: well-tolerated
[3]; up to 40 days of observations, all treatment groups
  inflammation in anterior or posterior segment (slit lamp biomicroscopy, indirect ophthalmoscopy): did not show any evidence of significant inflammation
[4]; [7]
  cell death: significantly less cell death
  macrophages that carry the IBA1 marker: significantly fewer macrophages
[4]; FA-treated animals
  Electroretinogram A-wave (Photoreceptor function) and B-wave (inner retinal function): significantly more robust
  outer nuclear layer thickness (histology): much thicker outer nuclear layer
[5]
  MR potency: 200
[6]
  restoring quiescent morphology: superior to TA
